# Measurements as given in article PMC7497641, “Neurotropic activity and safety of methylene-cycloalkylacetate (MCA) derivative 3-(3-allyl-2-methylenecyclohexyl) propanoic acid” (ACS Chemical Neuroscience, 2020).
# Assays:
# [1] = target: A tetrodotoxin-resistant voltage-gated sodium channel (NAVI1.5) (Homo sapiens, UniProt Q14524); test: cell-based
# [2] = target: T1, Opioid Receptor Mu 1 (OPRM1) (Homo sapiens, UniProt P35372); test: cell-based; conditions: cAMP, read-out: RC50 (the source's name)
# T1 construct: host or cells: cAMP Hunter cell lines
# T1 sequence (P35372 whole entry): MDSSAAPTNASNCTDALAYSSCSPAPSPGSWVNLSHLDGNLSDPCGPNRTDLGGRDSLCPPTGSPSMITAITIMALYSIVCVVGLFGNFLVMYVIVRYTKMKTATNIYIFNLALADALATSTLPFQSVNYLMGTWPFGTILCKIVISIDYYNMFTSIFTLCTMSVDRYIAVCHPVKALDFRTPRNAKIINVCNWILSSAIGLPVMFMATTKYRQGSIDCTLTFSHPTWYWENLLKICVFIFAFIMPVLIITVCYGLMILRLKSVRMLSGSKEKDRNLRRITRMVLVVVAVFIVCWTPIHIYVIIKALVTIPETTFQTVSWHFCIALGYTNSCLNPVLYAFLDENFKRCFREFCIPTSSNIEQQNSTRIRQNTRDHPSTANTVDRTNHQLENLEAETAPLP
# [3] = target: T2, Opioid Receptor Delta 1 (OPRD1) (Homo sapiens, UniProt P41143); test: SAFETYscan GPCR cAMP; assay type: cell-based
# T2 construct: host or cells: cAMP Hunter cell lines
# T2 sequence (P41143 whole entry): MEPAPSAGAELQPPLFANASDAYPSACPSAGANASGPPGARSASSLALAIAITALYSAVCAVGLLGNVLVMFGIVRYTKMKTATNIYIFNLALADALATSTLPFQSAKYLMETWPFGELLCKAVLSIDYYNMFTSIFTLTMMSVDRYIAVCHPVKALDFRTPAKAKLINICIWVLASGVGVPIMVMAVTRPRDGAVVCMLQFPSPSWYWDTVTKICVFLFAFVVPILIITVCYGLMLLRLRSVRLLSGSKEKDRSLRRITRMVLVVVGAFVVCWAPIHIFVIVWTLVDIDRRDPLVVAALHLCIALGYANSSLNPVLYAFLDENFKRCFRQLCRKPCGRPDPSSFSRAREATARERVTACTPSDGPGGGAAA
# [4] = target: Histamine Receptor H2 (HRH2) (Homo sapiens, UniProt P25021); test: SAFETYscan GPCR cAMP; assay type: cell-based; conditions: read-out: RC50 (the source's name)
# Sequence of Histamine Receptor H2 (HRH2) (P25021 whole entry): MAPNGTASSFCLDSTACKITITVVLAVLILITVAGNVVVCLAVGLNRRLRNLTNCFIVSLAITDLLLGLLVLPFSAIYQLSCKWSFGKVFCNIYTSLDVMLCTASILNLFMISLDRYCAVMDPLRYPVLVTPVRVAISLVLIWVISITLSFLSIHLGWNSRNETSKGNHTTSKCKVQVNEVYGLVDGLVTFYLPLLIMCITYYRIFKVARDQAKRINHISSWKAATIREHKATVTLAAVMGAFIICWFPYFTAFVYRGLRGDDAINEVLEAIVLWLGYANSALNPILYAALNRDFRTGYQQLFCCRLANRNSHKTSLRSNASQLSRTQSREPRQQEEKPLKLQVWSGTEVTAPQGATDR
# [5] = target: T3, Adrenergic Receptor α2A (ADRA2A) (Homo sapiens, UniProt P08913); test: SAFETYscan GPCR cAMP; assay type: cell-based
# T3 construct: host or cells: cAMP Hunter cell lines
# T3 sequence (P08913 whole entry): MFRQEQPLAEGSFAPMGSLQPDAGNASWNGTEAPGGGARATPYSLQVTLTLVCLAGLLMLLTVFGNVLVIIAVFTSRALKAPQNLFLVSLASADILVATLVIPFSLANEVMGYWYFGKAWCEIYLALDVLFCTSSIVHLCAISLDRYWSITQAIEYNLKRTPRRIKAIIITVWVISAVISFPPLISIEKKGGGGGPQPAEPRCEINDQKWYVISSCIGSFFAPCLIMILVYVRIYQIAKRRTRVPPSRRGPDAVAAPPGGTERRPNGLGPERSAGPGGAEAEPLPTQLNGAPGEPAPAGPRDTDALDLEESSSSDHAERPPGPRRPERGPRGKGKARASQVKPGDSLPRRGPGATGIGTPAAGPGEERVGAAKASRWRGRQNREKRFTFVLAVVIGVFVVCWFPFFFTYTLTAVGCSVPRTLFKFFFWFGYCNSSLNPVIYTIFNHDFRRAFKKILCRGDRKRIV
# [6] = system: calcineurin phosphatase; test: PhosphoSens CSox based phosphatase assay; assay type: biochemical; conditions: 5 μM HU-MCA-13
# Text: The initial focus was to measure the modulatory activity in vitro of MCA-13 on protein kinases which were reported to be involved in induction of neurite outgrowth.[18],[43] To do this, we took advantage of a powerful method to measure the activity of recombinant protein kinases using a homogeneous and continuous (kinetic) format, where the level of chelation-enhanced fluorescence (CHEF) is directly proportional to the amount of phosphorylated, real-time sensors consisting of sulfonamido-oxine (Sox) chromophore linked to a peptide or protein substrates of selective kinases.[44] […]
# Kinase activity was measured continuously using the PhosphoSens®technology (AssayQuant Technologies Inc., Marlborough, MA) according to the manufacturers’ recommendations (http://www.assayquant.com/) . This one-step homogeneous assay use s chelation-enh anced fluorescence via optimized substrate sensors unique for each kinase, containing the unnatural fluorogenic amino-acid Sox. […]
# Protein kinase activity was determined in 54 mM HEPES, pH 7.5 1 mM ATP 1.2 mM DTT (none in ASK1) 0.012% Brij-35 1% glycerol 0.2 mg/ml BSA 0.52 mM EGTA (none in assays of CAMK2α, PKCε, PKCι, Calcineurin A/B) 140 µM phosphatidylserine/3.8 µM diacylglycerol (PKCε, PKCι only) 5 ng/µl calmodulin/0.4 mM CaCl2 (CAMK2α, Calcineurin A/B only) 10 mM […]
# [7] = target: T4, Opioid Receptor Kappa 1 (OPRK1) (Homo sapiens, UniProt P41145); test: SAFETYscan GPCR cAMP; assay type: cell-based
# T4 construct: host or cells: cAMP Hunter cell lines
# T4 sequence (P41145 whole entry): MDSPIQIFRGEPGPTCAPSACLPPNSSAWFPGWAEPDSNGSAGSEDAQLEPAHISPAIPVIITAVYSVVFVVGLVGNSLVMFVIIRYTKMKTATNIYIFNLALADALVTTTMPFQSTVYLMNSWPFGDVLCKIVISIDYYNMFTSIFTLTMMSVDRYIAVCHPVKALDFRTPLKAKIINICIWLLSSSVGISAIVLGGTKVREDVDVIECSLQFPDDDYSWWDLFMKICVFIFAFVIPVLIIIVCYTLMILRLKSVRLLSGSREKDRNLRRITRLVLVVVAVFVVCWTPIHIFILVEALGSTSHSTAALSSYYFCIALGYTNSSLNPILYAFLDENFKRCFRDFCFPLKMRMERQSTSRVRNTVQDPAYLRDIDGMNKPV
# [8] = target: Muscarinic acetylcholine Receptor M3 (CHRM3) (Homo sapiens, UniProt P20309); test: cell-based; conditions: Calcium Flux, read-out: RC50 (the source's name)
# Sequence of Muscarinic acetylcholine Receptor M3 (CHRM3) (P20309 whole entry): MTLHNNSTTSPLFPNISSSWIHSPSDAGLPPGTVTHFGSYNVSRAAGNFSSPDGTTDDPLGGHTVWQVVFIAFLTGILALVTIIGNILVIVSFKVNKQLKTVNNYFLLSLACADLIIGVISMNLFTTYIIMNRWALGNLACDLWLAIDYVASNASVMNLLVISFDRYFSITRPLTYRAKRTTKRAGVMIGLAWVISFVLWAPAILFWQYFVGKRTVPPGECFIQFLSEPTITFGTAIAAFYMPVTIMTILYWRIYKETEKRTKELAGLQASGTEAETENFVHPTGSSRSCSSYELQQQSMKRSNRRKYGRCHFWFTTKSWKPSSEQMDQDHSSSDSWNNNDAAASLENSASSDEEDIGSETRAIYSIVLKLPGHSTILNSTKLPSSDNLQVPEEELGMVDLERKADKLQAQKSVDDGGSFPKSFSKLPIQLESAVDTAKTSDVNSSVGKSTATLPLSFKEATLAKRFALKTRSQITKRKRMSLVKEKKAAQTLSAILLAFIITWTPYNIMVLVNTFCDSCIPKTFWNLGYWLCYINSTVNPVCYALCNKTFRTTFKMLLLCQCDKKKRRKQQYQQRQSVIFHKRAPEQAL
# [9] = target: T5, cGMP-inhibited cyclic nucleotide phospho-diesterase 3A (PDE3A) (Homo sapiens, UniProt Q14432); test: SAFETYscan Enzymatic assay; assay type: biochemical; conditions: Inhibitor
# T5 construct: purchased Signal Chem
# T5 sequence (Q14432 whole entry): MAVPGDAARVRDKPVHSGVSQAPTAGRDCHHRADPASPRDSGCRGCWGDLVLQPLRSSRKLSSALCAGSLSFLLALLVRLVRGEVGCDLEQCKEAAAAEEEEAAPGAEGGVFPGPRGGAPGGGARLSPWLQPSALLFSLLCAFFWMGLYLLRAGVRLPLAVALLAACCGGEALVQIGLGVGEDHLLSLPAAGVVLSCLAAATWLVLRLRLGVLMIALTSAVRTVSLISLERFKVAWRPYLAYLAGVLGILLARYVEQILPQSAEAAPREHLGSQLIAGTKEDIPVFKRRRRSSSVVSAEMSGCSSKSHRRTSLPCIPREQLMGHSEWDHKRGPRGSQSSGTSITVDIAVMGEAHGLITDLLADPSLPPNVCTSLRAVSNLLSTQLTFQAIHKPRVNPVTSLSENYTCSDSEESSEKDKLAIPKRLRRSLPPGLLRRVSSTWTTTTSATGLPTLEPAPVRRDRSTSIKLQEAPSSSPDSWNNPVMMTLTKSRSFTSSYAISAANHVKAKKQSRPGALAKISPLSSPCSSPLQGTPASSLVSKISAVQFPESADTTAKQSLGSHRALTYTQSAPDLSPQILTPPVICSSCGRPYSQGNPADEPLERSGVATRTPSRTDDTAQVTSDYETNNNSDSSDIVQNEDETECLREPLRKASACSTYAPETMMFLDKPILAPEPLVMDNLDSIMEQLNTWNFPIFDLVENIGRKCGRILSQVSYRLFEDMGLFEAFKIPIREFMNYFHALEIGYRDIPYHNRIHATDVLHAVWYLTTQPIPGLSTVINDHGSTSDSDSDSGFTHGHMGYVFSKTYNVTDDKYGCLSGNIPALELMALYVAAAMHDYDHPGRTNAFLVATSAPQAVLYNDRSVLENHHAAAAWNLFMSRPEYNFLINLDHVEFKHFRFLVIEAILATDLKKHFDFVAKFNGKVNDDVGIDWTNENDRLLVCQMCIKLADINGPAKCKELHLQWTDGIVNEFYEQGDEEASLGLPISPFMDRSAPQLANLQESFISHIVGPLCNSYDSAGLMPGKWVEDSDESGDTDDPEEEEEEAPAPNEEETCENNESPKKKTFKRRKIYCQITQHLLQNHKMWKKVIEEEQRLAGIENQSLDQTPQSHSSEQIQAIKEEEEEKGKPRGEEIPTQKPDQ
# [10] = target: T6, 5-Hydroxy tryptamine (Serotonin) Receptor 1A (HTR1A) (Homo sapiens, UniProt P08908); test: SAFETYscan GPCR cAMP; assay type: cell-based
# T6 construct: host or cells: cAMP Hunter cell lines
# T6 sequence (P08908 whole entry): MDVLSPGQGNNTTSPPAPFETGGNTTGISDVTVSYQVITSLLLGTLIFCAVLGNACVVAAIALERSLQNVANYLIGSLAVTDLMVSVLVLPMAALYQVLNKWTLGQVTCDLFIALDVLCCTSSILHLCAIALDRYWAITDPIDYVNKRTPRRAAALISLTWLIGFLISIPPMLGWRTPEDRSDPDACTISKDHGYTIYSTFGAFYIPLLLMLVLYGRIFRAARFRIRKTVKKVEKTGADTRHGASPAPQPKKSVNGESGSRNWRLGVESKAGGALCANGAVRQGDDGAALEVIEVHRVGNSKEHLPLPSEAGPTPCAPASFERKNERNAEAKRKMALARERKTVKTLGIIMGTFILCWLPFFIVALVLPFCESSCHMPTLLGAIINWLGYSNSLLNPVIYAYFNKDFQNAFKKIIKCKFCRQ
smiles,measurement,setting,value
"C=CCC1CCCC(CCC(=O)O)C1=C (stereo not drawn) [HU-MCA-13, 3-(3-allyl-2-methylenecyclohexyl)propanoic acid]",IC50,[1],> 10 µM
same,EC50,[2]; Agonist,> 10 µM
same,IC50,[2]; Antagonist,> 10 µM
same,EC50,[3],> 10 µM
same,IC50,[3],> 10 µM
same,EC50,[4]; Agonist,> 10 µM
same,IC50,[4]; Antagonist,> 10 µM
same,EC50,[5],> 10 µM
same,IC50,[5],> 10 µM
same,effect on phosphatase activity,[6],no effects
same,EC50,[7],> 10 µM
same,IC50,[7],> 10 µM
same,EC50,[8]; Agonist,> 10 µM
same,IC50,[8]; Antagonist,> 10 µM
same,inhibition at 10 µM,"[9]; 10 μM, read-out: MCA-13 Max. Responce",3.21%
same,IC50,[9]; read-out: RC50 (the source's name),> 10 µM
same,EC50,[10],> 10 µM
same,IC50,[10],> 10 µM
